What all share (type): cell-based
In experiment [1] the test system is Punta Toro A hemorrhagic fever virus type Adames. Nature of the experiment: Punta Toro A virus cytoprotection, neutral red dye uptake. Particulars: Punta Toro A virus in LLC-MK2 cells. On the procedure: (§1) The second cytoprotection assay protocol, employed to validate the CPE results, was as follows: in the neutral red dye uptake version of the antiviral test protocol described immediately above, the same 96-well microplates were utilized after the CPE had been read. Neutral red dye was then added to the medium: cells not damaged by virus take up a greater amount of dye, which can be read on a computerized micro plate autoreader (the method is described in detail by McManus: Appl. Environ. Microbiol. 1976, 31, 35-38).
(§2) Punta Toro A hemorrhagic fever virus type Adames was obtained from the Center for Disease Control (CDC). The test cell line consisted of adult Rhesus monkey kidney cells (LLC-MK2).
The two protocols used to determine the cytoprotection properties of the humate materials were as described in Example 20.

The test system is the same in experiment [2]. The experiment can be described thus: Punta Toro A virus cytoprotection, inhibition of CPE. Conditions: LLC-MK2, read-out: CPE EC50.
For experiment [3] the test system is unchanged. Nature of the experiment: Punta Toro A virus time-of-addition cytoprotection, NR method. The protocol: as §1, §2
The two protocols used to determine the cytoprotection properties of the humate materials were as described in Example 20, except that drugs were added at specific times to the test wells containing virus.

For experiment [4] the test system is unchanged. The experiment can be described thus: Punta Toro A virus time-of-addition cytoprotection, CPE method.
Experiment [5] deals with Pichinde hemorrhagic fever virus 4763. Nature of the experiment: microbe, parasite or virus in culture. Conditions: BSC-1, read-out: CPE EC50.
Experiment [6] shares this test system.

Values after ≈ are worked out from the molar mass of the structure shown.

Usually EC50 stands for the concentration needed to bring the measured effect to its halfway point. In the case of `NC(=O)c1ncn([C@@H]2O[C@H](CO)[C@@H](O)[C@H]2O)n1` [Ribavirin], the “NR EC99” value in experiment [1] is listed as 5 micrograms per milliliter; in experiment [6], less than 1 micrograms per milliliter. For the same compound, the EC50 in experiment [2] worked out at 5 µg/mL (≈ 20.5 µM); in experiment [3] (0 h, read-out: EC50, NR method, time of addition 0 hours), 3 µg/mL (≈ 12.3 µM); in experiment [3] (1 h, read-out: EC50, NR method, time of addition 1 hours), 5 µg/mL (≈ 20.5 µM); in experiment [3] (1 h, read-out: EC50, NR method, time of addition −1 hours), 6 µg/mL (≈ 24.6 µM); in experiment [3] (2 h, read-out: EC50, NR method, time of addition 2 hours), 5 µg/mL (≈ 20.5 µM); in experiment [3] (4 h, read-out: EC50, NR method, time of addition 4 hours) it was 9 µg/mL (≈ 36.9 µM). Further, the 50% effective concentration (EC50) in experiment [3] (6 h, read-out: EC50, NR method, time of addition 6 hours) came out at 8 µg/mL (≈ 32.8 µM); in experiment [3] (8 h, read-out: EC50, NR method, time of addition 8 hours), 10 µg/mL (≈ 40.9 µM); in experiment [3] (12 h, read-out: EC50, NR method, time of addition 12 hours) it was 12 µg/mL (≈ 49.1 µM); in experiment [3] (24 h, read-out: EC50, NR method, time of addition 24 hours), 35 µg/mL (≈ 143 µM); in experiment [4] (0 h, read-out: EC50, CPE method, time of addition 0 hours), 4 µg/mL (≈ 16.4 µM); in experiment [4] (1 h, read-out: EC50, CPE method, time of addition 1 hours), 4 µg/mL (≈ 16.4 µM). Further, the EC50 in experiment [4] (1 h, read-out: EC50, CPE method, time of addition −1 hours) turned out to be 10 µg/mL (≈ 40.9 µM); in experiment [4] (2 h, read-out: EC50, CPE method, time of addition 2 hours) it was 8 µg/mL (≈ 32.8 µM); in experiment [4] (4 h, read-out: EC50, CPE method, time of addition 4 hours) it was 4 µg/mL (≈ 16.4 µM); in experiment [4] (6 h, read-out: EC50, CPE method, time of addition 6 hours), 10 µg/mL (≈ 40.9 µM); in experiment [4] (8 h, read-out: EC50, CPE method, time of addition 8 hours), 8 µg/mL (≈ 32.8 µM); in experiment [4] (12 h, read-out: EC50, CPE method, time of addition 12 hours), 8 µg/mL (≈ 32.8 µM). Further, the EC50 was 2 µg/mL (≈ 8.19 µM) in experiment [4] (24 h, read-out: EC50, CPE method, time of addition 24 hours) and 0.3 µg/mL (≈ 1.23 µM) in experiment [5].

The values are drawn from patent US20020049299A1, “Synthetic soil-extract materials and medicaments for hemorrhagic fever viruses based thereon” (priority 1997, published 2002).
